Source: ChEMBL document CHEMBL1255477, “In vitro properties of BAL30072, a novel siderophore sulfactam with activity against multiresistant gram-negative bacilli” (Antimicrob Agents Chemother, 2010)
Converted amounts (≈) assume the structure as drawn. The source made the active and inactive calls. The calls are words filed in the database; no cut-off is given here.

Tests used:
Acinetobacter baumannii [1] = assay: Antimicrobial activity against Acinetobacter baumannii HPA74510 assessed as log reduction in colony count after 24 hrs; format: functional
Pseudomonas aeruginosa [2] = assay: Antimicrobial activity against Pseudomonas aeruginosa 1024 assessed as log reduction in colony count within 6 hrs selected after 4 to 8 times MIC compound exposure; format: functional, organism-based
AmpC = AmpC (Escherichia coli, UniProt Q83TT7); assay: Inhibition of Escherichia coli ATCC 25922 AmpC
Pseudomonas aeruginosa [3] = assay: Antimicrobial activity against Pseudomonas aeruginosa 860 assessed as highest concentration at which colonies reappeared; format: functional
[4] = Inhibition of Escherichia coli Penicillin-binding protein 3
[5] = system: Stenotrophomonas maltophilia; assay: Antimicrobial activity against Stenotrophomonas maltophilia 1AC736 assessed as log reduction in colony count within 6 hrs selected after 1 to 16 times MIC compound exposure; format: functional, organism-based
[6] = Inhibition of Escherichia coli Penicillin-binding protein 1B
Acinetobacter baumannii [7] = assay: Microbicidal activity against Acinetobacter baumannii HPA74510 selected after 4 times MIC compound exposure; format: functional
Enterobacter cloacae [8] = assay: Antimicrobial activity against Enterobacter cloacae S9369 selected after MIC of compound exposure by broth dilution method; format: functional
Pseudomonas aeruginosa [9] = assay: Microbicidal activity against Pseudomonas aeruginosa 527 selected after 8 times MIC compound exposure; format: functional
[10] = system: Stenotrophomonas maltophilia; assay: Microbicidal activity against Stenotrophomonas maltophilia 1AC736 selected after 2 times MIC compound exposure; format: functional
Pseudomonas aeruginosa [11] = assay: Microbicidal activity against Pseudomonas aeruginosa (560546)9 M.P. selected after MIC of compound exposure; format: functional
Pseudomonas aeruginosa [12] = assay: Antimicrobial activity against Pseudomonas aeruginosa BA(C1-106) mutant assessed as doubling time; format: functional
Enterobacter cloacae [13] = assay: Antimicrobial activity against Enterobacter cloacae S9369 by broth dilution method; format: functional
Pseudomonas aeruginosa [14] = assay: Antimicrobial activity against Pseudomonas aeruginosa HPA10586 by broth dilution method; format: functional
Klebsiella pneumoniae = assay: Antimicrobial activity against Klebsiella pneumoniae 1338665 by broth dilution method; format: functional
Pseudomonas aeruginosa [15] = assay: Microbicidal activity against Pseudomonas aeruginosa BA selected after 4 times MIC compound exposure; format: functional
Acinetobacter baumannii [16] = assay: Antimicrobial activity against Acinetobacter baumannii HPA74510 selected after 4 times MIC compound exposure; format: functional
Acinetobacter baumannii [17] = assay: Antimicrobial activity against Acinetobacter baumannii HPA74510 by broth dilution method; format: functional

Chain of AmpC (Q83TT7 whole entry): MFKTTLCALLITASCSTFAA

| SMILES | FC (Acinetobacter baumannii [1]) | Activity (Pseudomonas aeruginosa [2]) | IC50 (AmpC) | Activity (Pseudomonas aeruginosa [3]) | IC50 [4] | Activity [5] | IC50 [6] | MBC (Acinetobacter baumannii [7]) | MBC (Enterobacter cloacae [8]) | MBC (Pseudomonas aeruginosa [9]) | MBC [10] | MBC (Pseudomonas aeruginosa [11]) | Time (Pseudomonas aeruginosa [12]) | MIC (Enterobacter cloacae [13]) | MIC (Pseudomonas aeruginosa [14]) | MIC (Klebsiella pneumoniae) | MBC (Pseudomonas aeruginosa [15]) | MIC (Acinetobacter baumannii [16]) | MIC (Acinetobacter baumannii [17]) |
| --- | --- | --- | --- | --- | --- | --- | --- | --- | --- | --- | --- | --- | --- | --- | --- | --- | --- | --- | --- |
| CC1(C)[C@H](NC(=O)/C(=N\OCc2cc(=O)c(O)cn2O)c2csc(N)n2)C(=O)N1OS(=O)(=O)O (stereo in doubt) | 3 | Active | 0.5 µM | 32 mg/L | 0.048 µM | Active | 1.9 µM | 0.5 µg/mL (≈ 0.964 µM) | – | – | – | – | – | – | – | – | – | – | – |
| C[C@@H](O)[C@H]1C(=O)N2C(C(=O)O)=C(S[C@@H]3CN[C@H](C(=O)N(C)C)C3)[C@H](C)[C@H]12 [MEROPENEM] | – | – | – | – | – | – | – | – | 2 µg/mL | 32 µg/mL (≈ 83.4 µM) | 16 µg/mL (≈ 41.7 µM) | 2 µg/mL | 3.8 h | 4 µg/mL (≈ 10.4 µM) | > 128 µg/mL | 4 µg/mL (≈ 10.4 µM) | 2 µg/mL (≈ 5.22 µM) | > 128 µg/mL | 1 µg/mL (≈ 2.61 µM) |
